Experimental findings from patent publication US9732075B2, “Benzimidazole-proline derivatives” (IDORSIA PHARMACEUTICALS LTD, priority 2012, dated 2017) are described below.

For one test, the target named is human orexin-1 receptor (Homo sapiens (Human), UniProt O43613). The experiment in a line: In vitro assay: intracellular calcium measurements (FLIPR), antagonistic activity. It is filed as cell-based. The following applies: CHO cells expressing human orexin-1 receptor, orexin-A agonist, geometric mean, read-out: IC50 Ox1. The method in brief:
(§1)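 IC50s are geometric means, possibly reference-normalized, from FLIPR calcium peaks in CHO cells bearing human orexin-1 or orexin-2 receptor. Fluo-4 AM/probenecid-loaded cells received antagonist for 120 min before challenge with orexin-A (final 3 nM, ~EC70), with responses compared against vehicle controls.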
(Calcium assays in cells follow changes in intracellular calcium, usually with a dye or a luminescent sensor.)

In the next test the target is human orexin-2 receptor (Homo sapiens (Human), UniProt O43614). Described as above. It is filed as cell-based. To be noted: CHO cells expressing human orexin-2 receptor, orexin-A agonist, geometric mean, read-out: IC50 Ox2. The method in brief: as §1
Chain of human orexin-2 receptor (O43614 whole entry): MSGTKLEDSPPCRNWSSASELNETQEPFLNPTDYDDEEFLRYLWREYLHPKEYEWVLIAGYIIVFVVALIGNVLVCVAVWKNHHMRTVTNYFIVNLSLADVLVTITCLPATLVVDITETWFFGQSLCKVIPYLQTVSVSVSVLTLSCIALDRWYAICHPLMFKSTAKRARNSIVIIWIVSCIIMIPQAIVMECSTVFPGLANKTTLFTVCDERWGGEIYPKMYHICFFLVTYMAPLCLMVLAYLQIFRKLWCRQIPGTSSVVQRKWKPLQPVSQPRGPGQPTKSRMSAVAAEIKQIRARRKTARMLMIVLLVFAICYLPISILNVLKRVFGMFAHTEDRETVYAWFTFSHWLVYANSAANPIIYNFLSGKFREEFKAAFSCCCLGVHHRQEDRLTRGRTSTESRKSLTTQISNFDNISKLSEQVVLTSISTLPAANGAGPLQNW

Chain of human orexin-1 receptor (O43613 whole entry): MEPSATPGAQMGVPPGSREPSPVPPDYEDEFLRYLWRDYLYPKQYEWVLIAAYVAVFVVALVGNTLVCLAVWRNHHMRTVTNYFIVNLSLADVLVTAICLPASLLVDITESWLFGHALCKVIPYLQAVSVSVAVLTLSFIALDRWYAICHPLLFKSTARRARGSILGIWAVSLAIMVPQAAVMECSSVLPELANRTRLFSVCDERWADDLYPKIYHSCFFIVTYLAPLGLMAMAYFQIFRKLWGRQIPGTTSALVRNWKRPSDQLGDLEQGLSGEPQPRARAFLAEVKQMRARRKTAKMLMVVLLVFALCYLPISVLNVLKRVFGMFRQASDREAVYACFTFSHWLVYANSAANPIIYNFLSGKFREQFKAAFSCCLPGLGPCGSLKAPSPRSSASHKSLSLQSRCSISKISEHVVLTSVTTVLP

Take `Cc1c(Br)cc2[nH]c([C@]3(C)CCCN3C(=O)c3ccccc3-c3ccccc3)nc2c1C` [Ex. 5.269]: the figures for the IC50 on human orexin-1 receptor and at human orexin-2 receptor were 15 nM and 22 nM, respectively.
The corresponding values for `Cc1ccc(-c2ccccc2)c(C(=O)N2CCC[C@@]2(C)c2nc3c(C)c(C)c(Br)cc3[nH]2)c1` [Ex. 5.270] are 7 nM and 9 nM.
Turning to `Cc1nc(C(=O)N2CCC[C@@]2(C)c2nc3c(C)c(C)c(Br)cc3[nH]2)c(-c2ccccc2C)s1` [Ex. 5.271], the IC50 was 5 nM at human orexin-1 receptor and 6 nM on human orexin-2 receptor.
As for `Cc1nc(C(=O)N2CCC[C@@]2(C)c2nc3c(C)c(C)c(Br)cc3[nH]2)c(-c2cccc(Cl)c2Cl)s1` [Ex. 5.272], the IC50 on human orexin-1 receptor turned out to be 8 nM; on human orexin-2 receptor it was 12 nM.
Consider `Cc1nc(C(=O)N2CCC[C@@]2(C)c2nc3c(C)c(C)c(Br)cc3[nH]2)c(-c2ccc(C)c(C)c2)s1` [Ex. 5.273], for which the values for the IC50 on human orexin-1 receptor and at human orexin-2 receptor were 7 nM and 12 nM, respectively.
The corresponding values for `COc1cccc(-c2sc(C)nc2C(=O)N2CCC[C@@]2(C)c2nc3c(C)c(C)c(Br)cc3[nH]2)c1` [Ex. 5.275] are 5 nM and 6 nM.
As to `Cc1nc(C(=O)N2CCC[C@@]2(C)c2nc3c(C)c(C)c(Br)cc3[nH]2)c(-c2ccc(F)cc2)s1` [Ex. 5.276], the IC50 on human orexin-1 receptor was found to be 3 nM; on human orexin-2 receptor, 8 nM.
Take `Cc1ccc(-c2ncccn2)c(C(=O)N2CCC[C@@]2(C)c2nc3cccc(C)c3[nH]2)c1` [Ex. 5.278]: the half-maximal inhibitory concentration (IC50) on human orexin-1 receptor was found to be 22 nM; at human orexin-2 receptor, 31 nM.
As for `COc1cc2nc([C@]3(C)CCCN3C(=O)c3cc(C)ccc3-c3ncccn3)[nH]c2cc1OC` [Ex. 5.280], the results for the concentration for half-maximal inhibition (IC50) on human orexin-1 receptor and on human orexin-2 receptor were 36 nM and 16 nM, respectively.
For `Cc1ccc(-c2ncccn2)c(C(=O)N2CCC[C@@]2(C)c2nc3cc(OC(F)(F)F)ccc3[nH]2)c1` [Ex. 5.281], the IC50 at human orexin-1 receptor worked out at 34 nM; on human orexin-2 receptor, 380 nM.
As for `Cc1ccc(-c2ncccn2)c(C(=O)N2CCC[C@@]2(C)c2nc3cc(F)c(Br)cc3[nH]2)c1` [Ex. 5.282], the IC50 on human orexin-1 receptor is 47 nM; on human orexin-2 receptor, 97 nM.
On to `Cc1ccc(-c2ncccn2)c(C(=O)N2CCC[C@@]2(C)c2nc3cc(C)c(C)cc3[nH]2)c1` [Ex. 5.284], for which the figures for the IC50 on human orexin-1 receptor and on human orexin-2 receptor were 10 nM and 18 nM, respectively.
Turning to `C[C@@]1(c2nc3cc(Cl)c(C(F)(F)F)cc3[nH]2)CCCN1C(=O)c1nc(-c2ccccc2)sc1-c1ccc(F)cc1` [Ex. 5.285], the results for the IC50 on human orexin-1 receptor and at human orexin-2 receptor were 32 nM and 452 nM, respectively.
Turning to `Cc1ccccc1-c1nc(C(=O)N2CCC[C@@]2(C)c2nc3cc(Cl)c(C(F)(F)F)cc3[nH]2)c(-c2ccc(F)cc2)s1` [Ex. 5.286], the figures for the IC50 at human orexin-1 receptor and at human orexin-2 receptor were 40 nM and 4590 nM, respectively.
In the case of `Cc1cccc(-c2nc(C(=O)N3CCC[C@@]3(C)c3nc4cc(Cl)c(C(F)(F)F)cc4[nH]3)c(-c3ccc(F)cc3)s2)c1` [Ex. 5.287], the IC50 on human orexin-1 receptor came to 53 nM; at human orexin-2 receptor, 1160 nM.
For the compound `Cc1ccc(-c2nc(C(=O)N3CCC[C@@]3(C)c3nc4cc(Cl)c(C(F)(F)F)cc4[nH]3)c(-c3ccc(F)cc3)s2)cc1` [Ex. 5.288], the IC50 amounted to 38 nM on human orexin-1 receptor and 1340 nM at human orexin-2 receptor.
The corresponding values for `C[C@@]1(c2nc3cc(Cl)c(C(F)(F)F)cc3[nH]2)CCCN1C(=O)c1nc(-c2ccccc2F)sc1-c1ccc(F)cc1` [Ex. 5.289] are 38 nM and 532 nM.
On to `C[C@@]1(c2nc3cc(Cl)c(C(F)(F)F)cc3[nH]2)CCCN1C(=O)c1nc(-c2cccc(F)c2)sc1-c1ccc(F)cc1` [Ex. 5.290], for which the values for the half-inhibitory concentration (IC50) at human orexin-1 receptor and at human orexin-2 receptor were 33 nM and 2140 nM, respectively.
The corresponding values for `C[C@@]1(c2nc3cc(Cl)c(C(F)(F)F)cc3[nH]2)CCCN1C(=O)c1nc(-c2ccc(F)cc2)sc1-c1ccc(F)cc1` [Ex. 5.291] are 48 nM and 347 nM.
As for `COc1cccc(-c2nc(C(=O)N3CCC[C@@]3(C)c3nc4cc(Cl)c(C(F)(F)F)cc4[nH]3)c(-c3ccc(F)cc3)s2)c1` [Ex. 5.292], the IC50 on human orexin-1 receptor worked out at 34 nM; on human orexin-2 receptor, 671 nM.
In the case of `COc1ccc(-c2nc(C(=O)N3CCC[C@@]3(C)c3nc4cc(Cl)c(C(F)(F)F)cc4[nH]3)c(-c3ccc(F)cc3)s2)cc1` [Ex. 5.293], the half-inhibitory concentration (IC50) at human orexin-1 receptor came out at 77 nM; at human orexin-2 receptor, 4040 nM.
For the compound `C[C@@]1(c2nc3ccc(C(F)(F)F)cc3[nH]2)CCCN1C(=O)c1nc(-c2ccccc2F)sc1-c1ccc(F)cc1` [Ex. 5.294], the figures for the IC50 at human orexin-1 receptor and on human orexin-2 receptor were 39 nM and 714 nM, respectively.
The corresponding values for `C[C@@]1(c2nc3cc(C(F)(F)F)ccc3[nH]2)CCCN1C(=O)c1cc(-c2cccc(C#N)c2)ccc1-n1nccn1` [Ex. 5.295] are 8 nM and 254 nM.
The corresponding values for `COc1cccc(-c2ccc(OC)c(F)c2C(=O)N2CCC[C@@]2(C)c2nc3c(C)c(Cl)ccc3[nH]2)c1` [Ex. 5.296] are 25 nM and 31 nM.
Regarding `COc1ccc(-c2ccc(OC)c(F)c2C(=O)N2CCC[C@@]2(C)c2nc3c(C)c(Cl)ccc3[nH]2)cc1` [Ex. 5.297], the figures for the half-inhibitory concentration (IC50) at human orexin-1 receptor and at human orexin-2 receptor were 41 nM and 57 nM, respectively.
Turning to `COc1ccc(-c2ccccc2F)c(C(=O)N2CCC[C@@]2(C)c2nc3c(C)c(Cl)ccc3[nH]2)c1F` [Ex. 5.298], the IC50 on human orexin-1 receptor was 15 nM; at human orexin-2 receptor it was 21 nM.
The corresponding values for `COc1ccc(-c2ccc(F)cc2)c(C(=O)N2CCC[C@@]2(C)c2nc3ccc(Cl)c(C)c3[nH]2)c1F` [Ex. 5.299] are 17 nM and 21 nM.
The corresponding values for `COc1ccc(-c2cccc(F)c2)c(C(=O)N2CCC[C@@]2(C)c2nc3ccc(Cl)c(C)c3[nH]2)c1F` [Ex. 5.300] are 10 nM and 18 nM.
As for `COc1ccc(-c2cccc(C)c2)c(C(=O)N2CCC[C@@]2(C)c2nc3ccc(Cl)c(C)c3[nH]2)c1F` [Ex. 5.301], the IC50 at human orexin-1 receptor was determined as 24 nM; on human orexin-2 receptor it was 16 nM.
Take `COc1ccc(-c2ccc(C)cc2)c(C(=O)N2CCC[C@@]2(C)c2nc3ccc(Cl)c(C)c3[nH]2)c1F` [Ex. 5.302]: the IC50 is 28 nM at human orexin-1 receptor and 42 nM on human orexin-2 receptor.
Consider `COc1ccc(-c2cccc(C(F)(F)F)c2)c(C(=O)N2CCC[C@@]2(C)c2nc3ccc(Cl)c(C)c3[nH]2)c1F` [Ex. 5.303], for which the IC50 turned out to be 29 nM on human orexin-1 receptor and 21 nM on human orexin-2 receptor.
`COc1ccc(-c2ccc3c(c2)OCO3)c(C(=O)N2CCC[C@@]2(C)c2nc3c(C)c(Cl)ccc3[nH]2)c1F` [Ex. 5.304]: the figures for the IC50 on human orexin-1 receptor and on human orexin-2 receptor were 19 nM and 86 nM, respectively.
Take `COc1ccc(-c2ccc(C(F)(F)F)cc2)c(C(=O)N2CCC[C@@]2(C)c2nc3ccc(Cl)c(C)c3[nH]2)c1F` [Ex. 5.305]: the results for the IC50 at human orexin-1 receptor and on human orexin-2 receptor were 35 nM and 41 nM, respectively.
For `COc1ccc(-c2ccc(OC(F)(F)F)cc2)c(C(=O)N2CCC[C@@]2(C)c2nc3c(C)c(Cl)ccc3[nH]2)c1F` [Ex. 5.306], the values for the IC50 on human orexin-1 receptor and on human orexin-2 receptor were 33 nM and 69 nM, respectively.
With `COc1ccc(-c2cccc(C#N)c2)c(C(=O)N2CCC[C@@]2(C)c2nc3c(C)c(Cl)ccc3[nH]2)c1F` [Ex. 5.307], the IC50 at human orexin-1 receptor stood at 20 nM; at human orexin-2 receptor, 49 nM.
The corresponding values for `COc1ccc(-c2ccc(C#N)cc2)c(C(=O)N2CCC[C@@]2(C)c2nc3c(C)c(Cl)ccc3[nH]2)c1F` [Ex. 5.308] are 21 nM and 122 nM.
The corresponding values for `COc1ccc(-c2cccc(OC(F)(F)F)c2)c(C(=O)N2CCC[C@@]2(C)c2nc3c(C)c(Cl)ccc3[nH]2)c1F` [Ex. 5.309] are 23 nM and 21 nM.
Take `Cc1cc(C(=O)N2CCC[C@@]2(C)c2nc3c(C)cc(Br)cc3[nH]2)c(-c2ccccc2)cn1` [Ex. 5.310]: the IC50 turned out to be 32 nM at human orexin-1 receptor and 70 nM on human orexin-2 receptor.
As to `C=C1C[C@@H](c2nc3cc(OC)ccc3[nH]2)N(C(=O)c2nc(C)sc2-c2ccc(OC)cc2)C1` [Ex. 6.2], the IC50 on human orexin-1 receptor turned out to be 223 nM; at human orexin-2 receptor it was 17 nM.
On to `C=C1C[C@@H](c2nc3cc(OC)ccc3[nH]2)N(C(=O)c2nc(C)sc2-c2ccccc2)C1` [Ex. 6.3], for which the IC50 came out at 243 nM on human orexin-1 receptor and 18 nM on human orexin-2 receptor.
`C=C1C[C@@H](c2nc3cc(OC)ccc3[nH]2)N(C(=O)c2nccnc2-c2ccc(C)cc2)C1` [Ex. 6.4]: the IC50 at human orexin-1 receptor amounted to 2510 nM; on human orexin-2 receptor, 118 nM.
The corresponding values for `C=C1C[C@@H](c2nc3cc(OC)ccc3[nH]2)N(C(=O)c2nc(C)sc2-c2ccc(Cl)cc2)C1` [Ex. 6.5] are 216 nM and 19 nM.
`C=C1C[C@@H](c2nc3cc(OC)ccc3[nH]2)N(C(=O)c2nccnc2-c2cccc(C)c2)C1` [Ex. 6.6]: the results for the IC50 at human orexin-1 receptor and on human orexin-2 receptor were 477 nM and 52 nM, respectively.
The corresponding values for `C=C1C[C@@H](c2nc3cc(OC)ccc3[nH]2)N(C(=O)c2nc(C)sc2-c2cccc(C)c2)C1` [Ex. 6.7] are 15 nM and 3 nM.
The corresponding values for `C=C1C[C@@H](c2nc3cc(OC)ccc3[nH]2)N(C(=O)c2nc(C)sc2-c2cccc(Cl)c2)C1` [Ex. 6.8] are 21 nM and 7 nM.
Regarding `C=C1C[C@@H](c2nc3cc(OC)ccc3[nH]2)N(C(=O)c2nc(C)sc2-c2ccc(C)c(C)c2)C1` [Ex. 6.9], the IC50 on human orexin-1 receptor came out at 7 nM; at human orexin-2 receptor, 4 nM.
Consider `C=C1C[C@@H](c2nc3cc(OC)ccc3[nH]2)N(C(=O)c2nc(C3CC3)sc2-c2ccccc2)C1` [Ex. 6.10], for which the IC50 is 206 nM at human orexin-1 receptor and 81 nM at human orexin-2 receptor.
As for `C=C1C[C@@H](c2nc3cc(OC)ccc3[nH]2)N(C(=O)c2cnc(C)nc2-c2cccc(C)c2)C1` [Ex. 6.11], the IC50 at human orexin-1 receptor came out at 135 nM; at human orexin-2 receptor it was 56 nM.
As for `C=C1C[C@@H](c2nc3cc(OC)ccc3[nH]2)N(C(=O)c2cc(C)ccc2-n2nccn2)C1` [Ex. 6.12], the values for the IC50 at human orexin-1 receptor and at human orexin-2 receptor were 317 nM and 6 nM, respectively.

The IC50 is the concentration needed to halve the response being measured.
